# Results as given in paper PMC8657773, “Development of a PROTAC-Based Targeting Strategy Provides a Mechanistically Unique Mode of Anti-Cytomegalovirus Activity” (International Journal of Molecular Sciences, 2021).
# Where “and” joins values, the source holds several entries; their conditions need not be identical. Identical values can stand only once. Like-named read-outs stand apart in the source and are kept apart here.
# Assays:
# HAdV-2 = HAdV-2 plaque formation assay in HFFs; assay type: cell-based, human adenovirus type 2; conditions: for EC50: HAdV-2, HFF, 10 d p.i.; for impact on HAdV-2 plaque formation: HFFs, at concentrations (0.03 µM) that produced anti-HCMV activity
# HFFs = assay: in vitro; assay type: cell-based; conditions: human
# Experimental: (§1) Drug induced cytotoxicity in HFF and other cell types was measured as a reduction of cell viability determined by Neutral Red uptake assay (NRA), as described previously. Briefly, compound treated cells were incubated with a final concentration of 40 μg/mL Neutral Red (Sigma Aldrich, St. Louis, MO, USA) for 1 to 4 h, depending on the cell type. The amount of incorporated Neutral Red was released from the cells by incubation with destaining solution (50% ethanol, 49% H2O, 1% acetic acid), and subsequently quantitated in a microplate reader by fluorescence measurement using 560/630 nm for excitation/emission, respectively. For determination of lactate dehydrogenase release into the cell culture supernatant, the CytoTox 96® Non-Radioactive Cytotoxicity Assay (Promega, Madison, WI, USA) was used according to the manufacturer’s protocol. Values were normalized to maximal release of LDH by measuring lysates of solvent-treated control cells. Cell viability was defined as the absence of cytotoxicity.
# in vitro = assay type: cell-based
# Experimental: as §1
# MCMV Smith-GFP = assay: microbe, parasite or virus in culture; assay type: cell-based, murine CMV; conditions: for EC50: Human betaherpesvirus 5, in Mus musculus, 120 h, MCMV Smith-GFP, 5 d p.i.
# SARS-CoV-2 d6-YFP [1] = assay: microbe, parasite or virus in culture; assay type: cell-based
# VZV Oka-GFP = assay type: cell-based, varicella zoster virus; conditions: HFF, 1× TCID25^7d, 6 d p.i.
# HCMV AD169-GFP = assay: microbe, parasite or virus in culture; assay type: cell-based, Human cytomegalovirus
# SARS-CoV-2 d6-YFP [2] = tested on: SARS-CoV-2 d6-YFP; set-up: method as in PMID 34578109; conditions: human Caco-2 cells, previously demonstrated; ref [41]; cited from earlier work
# ZIKV PRVABC59 = assay: ZIKV qPCR replication assay in Vero cells; assay type: cell-based, Zika virus; conditions: for EC50: ZIKV PRVABC59, Vero
# MEFs = assay: in vitro; assay type: cell-based; conditions: mouse, 5 d
# Experimental: as §1
# [3] = Cell viability of Vero cells; assay type: cell-based; conditions: African green monkey
# Experimental: as §1
# HCMV Merlin [4] = assay: HCMV-specific qPCR replication assay in TEV-1 trophoblast cells; assay type: cell-based, Human cytomegalovirus
# CDK2 [5] = molecular target: T1, CDK2 (Homo sapiens, UniProt P24941); assay: Western blot of CDK degradation in HFFs; assay type: cell-based; conditions: uninfected HFFs
# T1 construct: endogenous in cells; host or cells: primary human foreskin fibroblasts (HFFs), mock- or HCMV AD169-infected
# Experimental: (§2) Western blot analyses of infected and mock-infected HFFs were performed as previously described. Antibodies specific for CDK9 (sc-484, Santa Cruz Biotechnology, Dallas, TX, USA), mAb-CDK1 (sc-54, Santa Cruz Biotechnology), pAb CDK2 (Sc-163, Santa Cruz Biotechnology), pAb-CDK7 (sc-723, Santa Cruz Biotechnology), and mAb β-actin (A5441, Sigma Aldrich, St. Louis, MO, USA) were used with an appropriate secondary antibody to detect the respective proteins.
# CDK7 [6] = molecular target: T2, CDK7 (Homo sapiens, UniProt P50613); assay: Western blot of CDK degradation in HFFs; assay type: cell-based; conditions: uninfected HFFs
# T2 construct: endogenous in cells; host or cells: primary human foreskin fibroblasts (HFFs), mock- or HCMV AD169-infected
# T2 sequence (P50613 whole entry): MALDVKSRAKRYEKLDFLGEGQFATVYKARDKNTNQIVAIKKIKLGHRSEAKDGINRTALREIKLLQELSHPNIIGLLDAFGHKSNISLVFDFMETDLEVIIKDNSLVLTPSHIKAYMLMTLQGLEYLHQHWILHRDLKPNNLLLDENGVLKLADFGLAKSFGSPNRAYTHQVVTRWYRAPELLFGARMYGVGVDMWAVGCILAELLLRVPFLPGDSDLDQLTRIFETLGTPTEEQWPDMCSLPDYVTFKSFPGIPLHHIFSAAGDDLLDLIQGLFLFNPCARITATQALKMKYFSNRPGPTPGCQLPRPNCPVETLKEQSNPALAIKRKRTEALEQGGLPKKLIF
# Experimental: as §2
# CDK9 [7] = molecular target: T3, CDK9 (Homo sapiens, UniProt P50750); assay: Western blot of CDK degradation in HFFs; assay type: cell-based; conditions: uninfected HFFs
# T3 construct: endogenous in cells; host or cells: primary human foreskin fibroblasts (HFFs), mock- or HCMV AD169-infected
# T3 sequence (P50750 whole entry): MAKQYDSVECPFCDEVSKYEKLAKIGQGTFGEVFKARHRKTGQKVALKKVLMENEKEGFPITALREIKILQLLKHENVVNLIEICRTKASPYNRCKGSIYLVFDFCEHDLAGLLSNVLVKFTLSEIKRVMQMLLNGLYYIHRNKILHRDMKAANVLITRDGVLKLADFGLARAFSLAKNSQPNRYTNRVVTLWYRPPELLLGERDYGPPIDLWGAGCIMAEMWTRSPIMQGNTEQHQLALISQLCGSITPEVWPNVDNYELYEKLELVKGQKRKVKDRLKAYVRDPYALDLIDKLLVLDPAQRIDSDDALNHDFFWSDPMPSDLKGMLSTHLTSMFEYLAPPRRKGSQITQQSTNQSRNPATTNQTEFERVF
# Experimental: as §2
# CDK1 [8] = molecular target: T4, CDK1 (Homo sapiens, UniProt P06493); assay: Western blot of CDK degradation in HFFs; assay type: cell-based; conditions: uninfected HFFs, up to 100 nM, up to 24 h
# T4 construct: endogenous in cells; host or cells: primary human foreskin fibroblasts (HFFs), mock- or HCMV AD169-infected
# T4 sequence (P06493 whole entry): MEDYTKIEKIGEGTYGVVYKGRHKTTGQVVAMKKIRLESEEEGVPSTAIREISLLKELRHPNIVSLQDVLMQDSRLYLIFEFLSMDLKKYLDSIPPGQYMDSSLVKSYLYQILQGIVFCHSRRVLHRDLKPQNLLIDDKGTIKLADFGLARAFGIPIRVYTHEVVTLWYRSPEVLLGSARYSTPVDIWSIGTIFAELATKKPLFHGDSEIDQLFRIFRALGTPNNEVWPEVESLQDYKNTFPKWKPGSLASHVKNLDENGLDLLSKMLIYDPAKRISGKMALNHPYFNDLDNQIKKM
# Experimental: as §2
# HCMV Merlin [9] = assay: HCMV-specific qPCR replication assay in MRC-5 cells; assay type: cell-based, Human cytomegalovirus
# TEV-1 trophoblast cells = assay: Transwell migration assay, HCMV AD169-infected TEV-1 trophoblasts; assay type: cell-based, human; conditions: HCMV AD169-infected TEV-1 (MOI 2)
# CDK2 [10] = molecular target: T1, CDK2; assay: Western blot of CDK levels in HCMV-infected HFFs; assay type: cell-based; conditions: HCMV AD169-infected HFFs (MOI 2), THAL-SNS032 treatment, 1 and 3 d p.i.
# Experimental: as §2
# CDK7 [11] = molecular target: T2, CDK7; assay: Western blot of CDK levels in HCMV-infected HFFs; assay type: cell-based; conditions: HCMV AD169-infected HFFs (MOI 2), THAL-SNS032 treatment, 1 and 3 d p.i.
# Experimental: as §2
# CDK9 [12] = molecular target: T3, CDK9; assay: Western blot of CDK levels in HCMV-infected HFFs; assay type: cell-based; conditions: HCMV AD169-infected HFFs (MOI 2)
# Experimental: as §2
# CDK1 [13] = molecular target: T4, CDK1; assay: Western blot of CDK levels in HCMV-infected HFFs; assay type: cell-based; conditions: HCMV AD169-infected HFFs (MOI 2), THAL-SNS032 treatment, 1 and 3 d p.i.
# Experimental: as §2
# [14] = Neutral Red uptake assay, uninfected MRC-5 cells; assay type: cell-based; conditions: human
# Experimental: as §1
# [15] = MEF, 1× TCID25^5d, Table 1 summary
# [16] = Severe acute respiratory syndrome coronavirus 2, Caco-2
# [17] = Severe acute respiratory syndrome coronavirus 2, Caco-2, 30 h
# [18] = Human betaherpesvirus 5, AD169, 168 h
# [19] = Human betaherpesvirus 5, AD169, HFF-1, 168 h
# [20] = washout after 24 h treatment, initial levels reconstituted after 24 h
smiles,measurement,setting,value
CC(C)(C)c1cnc(CSc2cnc(NC(=O)C3CCNCC3)s2)o1 [SNS032],EC50,HAdV-2,inactive
same,impact on HAdV-2 plaque formation,HAdV-2,none of the drugs produced a measurable impact
same,CC50,HFFs,220 ± 40 nM
same,CC50 at 48 h,in vitro; human,59500 ± 7000 nM
same,CC50,"in vitro; human, CC50",240 ± 22 nM
same,CC50,"in vitro; mouse, CC50",1030 ± 50 nM
same,CC50 at 5 d,"in vitro; mouse, CC50",~1000 nM
same,EC50,MCMV Smith-GFP; [15],290 ± 50 nM
same,SI,"MCMV Smith-GFP; MCMV/MEF, Figure 6 experiment",3.5
same,SI,"MCMV Smith-GFP; MCMV/MEF, Table 1 summary",3.5
same,EC50,SARS-CoV-2 d6-YFP [1],180 ± 30 nM
same,SI,"SARS-CoV-2 d6-YFP [1]; Caco-2, conventional treatment",340
same,SI,"SARS-CoV-2 d6-YFP [1]; Caco-2, only pretreatment",397
same,EC50,SARS-CoV-2 d6-YFP [1]; [16],150 ± 30 nM
same,EC50,SARS-CoV-2 d6-YFP [1]; [17],175 ± 250 nM
same,EC50,VZV Oka-GFP,inactive
same,SI,"HCMV AD169-GFP; HCMV AD169-GFP/HFF, Table 1 summary",2.0
same,SI,"HCMV AD169-GFP; HCMV AD169-GFP/HFF, representative experiment (Figure 3)",2.3
same,EC50,HCMV AD169-GFP; [18],105 ± 4 nM
same,EC50,HCMV AD169-GFP; [19],110 ± 20 nM
same,impairment of SARS-CoV-2 replication,SARS-CoV-2 d6-YFP [2],effective
CC(C)(C)c1cnc(CSc2cnc(NC(=O)C3CCN(CC(=O)NCCOCCOCCOCCNc4cccc5c4C(=O)N(C4CCC(=O)NC4=O)C5=O)CC3)s2)o1 (stereo not drawn) [THAL-SNS032],effect on ZIKV replication,"ZIKV PRVABC59; Vero cells, concentrations up to 10 µM",did not affect virus replication
same,EC50,"ZIKV PRVABC59; MOI 0.02, 1 d p.i.",inactive
same,EC50,"ZIKV PRVABC59; MOI 0.02, 2 d p.i.",inactive
same,EC50,"ZIKV PRVABC59; MOI 0.02, 3 d p.i.",inactive
same,EC50,"ZIKV PRVABC59; MOI 0.02, 4 d p.i.",inactive
same,EC50,HAdV-2,inactive
same,impact on HAdV-2 plaque formation,HAdV-2,none of the drugs produced a measurable impact
same,CC50,MEFs,960 ± 120 nM
same,CC50,in vitro; human,4030 nM
same,CC50 at 48 h,in vitro; human,64900 ± 16200 nM
same,CC50,"in vitro; human, CC50",125 ± 14 nM
same,CC50,"in vitro; mouse, CC50",1000 ± 220 nM
same,CC50 at 5 d,"in vitro; mouse, CC50",~1000 nM
same,EC50 Ratio SNS032/ THAL-SNS032,MCMV Smith-GFP,1.4
same,SI,MCMV Smith-GFP,4.7
same,EC50,MCMV Smith-GFP; [15],210 ± 90 nM
same,EC50,"MCMV Smith-GFP; MEFs, Figure 6 experiment",220 ± 80 nM
same,CC50 at 4 d,[3],43900 nM
same,EC50,SARS-CoV-2 d6-YFP [1],150 ± 20 nM
same,EC50 Ratio SNS032/ THAL-SNS032,SARS-CoV-2 d6-YFP [1],1.6 and 1.7
same,SI,SARS-CoV-2 d6-YFP [1],592
same,EC50,SARS-CoV-2 d6-YFP [1]; [16],146 ± 22 nM
same,EC50,SARS-CoV-2 d6-YFP [1]; [17],110 ± 20 nM
same,SI,HCMV Merlin [4],53.7 and 54
same,EC50,"HCMV Merlin [4]; Human betaherpesvirus 5, 168 h, HCMV Merlin, TEV-1, 7 d p.i.",75 nM
same,CDK2 protein level,"CDK2 [5]; 100 nM, 6 to 24 h",decline in protein levels
same,time reduced CDK2 level was maintained after washout,CDK2 [5]; [20],6 h
same,CDK7 protein level (larger variety),"CDK7 [6]; 100 nM, 6 to 24 h",decline in protein levels
same,time reduced CDK7 level was maintained after washout,CDK7 [6]; [20],6 h
same,CDK9 protein level,"CDK9 [7]; 10 nM, beginning with 6 h",markedly reduced
same,CDK9 protein level,"CDK9 [7]; 100 nM, after 40 min",decreased protein levels
same,time reduced CDK9 level was maintained after washout,CDK9 [7]; [20],6 h
same,CDK1 protein level,CDK1 [8],apparently not affected
same,EC50,VZV Oka-GFP,inactive
same,EC50,"HCMV Merlin [9]; Human betaherpesvirus 5, MRC5, 96 h, HCMV Merlin, MRC-5, MOI 0.02, 4 d p.i., read-out: EC50",370 nM
same,EC50,"HCMV Merlin [9]; Human betaherpesvirus 5, MRC5, 96 h, HCMV Merlin, MRC-5, MOI 0.2, 4 d p.i., read-out: EC50",1770 nM
same,EC50,"HCMV Merlin [9]; Human betaherpesvirus 5, MRC5, 168 h, HCMV Merlin, MRC-5, MOI 0.002, 7 d p.i., read-out: EC50",570 nM
same,EC50,"HCMV Merlin [9]; Human betaherpesvirus 5, MRC5, 168 h, HCMV Merlin, MRC-5, MOI 0.02, 7 d p.i., read-out: EC50",400 nM
same,EC50,"HCMV Merlin [9]; Human betaherpesvirus 5, MRC5, 168 h, HCMV Merlin, MRC-5, MOI 0.2, 7 d p.i., read-out: EC50",3070 nM
same,EC50,"HCMV Merlin [9]; Human betaherpesvirus 5, MRC5, 240 h, HCMV Merlin, MRC-5, MOI 0.002, 10 d p.i., read-out: EC50",940 nM
same,EC50,"HCMV Merlin [9]; Human betaherpesvirus 5, MRC5, MRC-5, lower MOIs of 0.02 and 0.002, 4 to 10 days, read-out: EC50 values (range)",340 to 940 nM
same,EC50 Ratio SNS032/ THAL-SNS032,HCMV AD169-GFP,3.7
same,SI,HCMV AD169-GFP,5.7
same,EC50,HCMV AD169-GFP; [18],25 ± 1 nM
same,EC50,HCMV AD169-GFP; [19],30 ± 10 nM
same,EC50,"HCMV AD169-GFP; Human betaherpesvirus 5, AD169, read-out: EC50 values (range) for HCMV",30 to 3070 nM
same,trophoblast migration,"TEV-1 trophoblast cells; 0.5 µM, 21 h migration",almost completely abolished trophoblast migration
same,CDK2 protein level,CDK2 [10],markedly reduced at 1 d p.i. and completely lost at 3 d p.i.
same,CDK7 protein level,CDK7 [11],markedly reduced at 1 d p.i. and completely lost at 3 d p.i.
same,CDK9 protein level,"CDK9 [12]; 1 nM, 1 and 3 d p.i.",partial reduction
same,CDK9 protein level,"CDK9 [12]; 10 nM, 3 h p.i.",sufficient to deplete CDK9 levels
same,CDK1 protein level,CDK1 [13],markedly reduced at 1 d p.i. and completely lost at 3 d p.i.
same,CC50,[14],4650 nM
Nc1nc(O)c2ncn(COC(CO)CO)c2n1 [ganciclovir],resolving HCMV inhibition of trophoblast migration,"TEV-1 trophoblast cells; 10 µM, vs infected untreated cells (p = 0.999)",no effect
